Some test systems named below: T-47D breast; UACC-257 melanoma; MOLT-4 leukemia; A498 renal; SK-MEL-28 melanoma; SW-620 colon; LOX IMVI melanoma; NCI-H226 lung; KM12 colon; SNB-75 CNS.
Common to all, as to assay: NCI tumour cell line growth inhibition, 48 h

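Five compound concentrations were applied to cells in 96-well plates for 48 hours; endpoints were derived by simple linear interpolation of the resulting dose-response curve. GI50: concentration for 50% inhibition of growth. Definition used: TGI = concentration required for complete inhibition of growth.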 Bounds are passed on as bounds.

Take `Cc1cc(=O)oc2cc(OC(=O)N(C)C)c(Cl)cc12`: the TGI in the experiment on T-47D breast, in the experiment on UACC-257 melanoma, in the experiment on MOLT-4 leukemia, in the experiment with A498 renal, with SK-MEL-28 melanoma and with SW-620 colon was above 100 µM throughout. In addition, the TGI in the experiment with LOX IMVI melanoma, in the experiment on NCI-H226 lung and with KM12 colon was above 100 µM in each case.
For `COc1ccc(-c2cc(=O)c3ccc(C)nc3[nH]2)cc1`, the TGI in the experiment with T-47D breast, with UACC-257 melanoma, with MOLT-4 leukemia, with A498 renal, in the experiment with SK-MEL-28 melanoma and in the experiment with SW-620 colon was above 100 µM each time. Also, the TGI in the experiment on LOX IMVI melanoma, with NCI-H226 lung and with KM12 colon was above 100 µM throughout.
For `Cc1sc2nc(-c3ccncc3)c(/C=N/N=C(N)N)n2c1C`, the GI50 is 30.7 µM in the experiment with T-47D breast; 18.2 µM in the experiment with MOLT-4 leukemia; 25.8 µM with A498 renal; 68.9 µM with SK-MEL-28 melanoma; 34.7 µM in the experiment with SW-620 colon; 89.8 µM in the experiment with SNB-75 CNS. Also, the GI50 with LOX IMVI melanoma is 28.2 µM; in the experiment on NCI-H226 lung it was 26.8 µM; with KM12 colon, 14.7 µM. The TGI with T-47D breast, in the experiment on MOLT-4 leukemia, in the experiment on A498 renal, in the experiment with SK-MEL-28 melanoma, in the experiment with SW-620 colon and in the experiment with SNB-75 CNS was above 100 µM each time. The TGI worked out at 78 µM with LOX IMVI melanoma, 84.6 µM in the experiment with NCI-H226 lung and 37.2 µM in the experiment on KM12 colon.
In the case of `COc1cccc(-c2nc3sccn3c2-c2ccnc(NCCCNS(=O)(=O)c3cccc(F)c3)c2)c1`, the GI50 with T-47D breast was 1.24 µM; in the experiment with UACC-257 melanoma, 2.89 µM; in the experiment with MOLT-4 leukemia, 1.84 µM; in the experiment with SK-MEL-28 melanoma it was 2.96 µM; in the experiment on SW-620 colon, 3.16 µM; in the experiment with SNB-75 CNS, 1.73 µM. The GI50 is 2.63 µM in the experiment on LOX IMVI melanoma, 2.38 µM in the experiment with NCI-H226 lung and 3.17 µM in the experiment on KM12 colon. Besides, the TGI with T-47D breast was 4.93 µM; in the experiment with UACC-257 melanoma, 9.68 µM; in the experiment with MOLT-4 leukemia, 5.46 µM; with SK-MEL-28 melanoma, 9.82 µM; in the experiment with SW-620 colon, above 100 µM; in the experiment with SNB-75 CNS, 5.47 µM. The TGI in the experiment with LOX IMVI melanoma is 14.8 µM; with NCI-H226 lung, 8.38 µM; with KM12 colon it was 27.3 µM.
As for `CC(C)CCC(=O)c1ccoc1`, the TGI in the experiment with T-47D breast, in the experiment with UACC-257 melanoma, with MOLT-4 leukemia, in the experiment with SK-MEL-28 melanoma, in the experiment with SW-620 colon and with SNB-75 CNS was above 100 µM in each case. Moreover, the TGI in the experiment with LOX IMVI melanoma, with NCI-H226 lung and in the experiment with KM12 colon was above 100 µM each time.
With `C=C(C)C(=O)O[C@H]1C[C@@]23O[C@@H]2CCC(=C[C@H]2OC(=O)C(=C)[C@H]12)COC3O` (stereo not given in full), the TGI is above 100 µM with T-47D breast; above 100 µM in the experiment on UACC-257 melanoma; 92.2 µM in the experiment with MOLT-4 leukemia; above 100 µM in the experiment on A498 renal; 36.4 µM in the experiment with SW-620 colon; above 100 µM in the experiment on SNB-75 CNS. Also, the figures for the TGI with LOX IMVI melanoma, in the experiment with NCI-H226 lung and in the experiment on KM12 colon were 30.5 µM, above 100 µM and above 100 µM, respectively.
Turning to `C=C1C(=O)O[C@H]2[C@H]1CC/C(COC(=O)CSCCSCC(=O)OC/C1=C/CC[C@@]3(C)O[C@H]3[C@H]3OC(=O)C(=C)[C@@H]3CC1)=C\CC[C@@]1(C)O[C@@H]21`, the GI50 in the experiment on T-47D breast is 1.63 µM; in the experiment with UACC-257 melanoma, 1.93 µM; in the experiment on MOLT-4 leukemia, 1.16 µM; in the experiment on A498 renal, 2.75 µM; in the experiment with SK-MEL-28 melanoma it was 1.92 µM; in the experiment on SW-620 colon, 1.48 µM. Moreover, the GI50 in the experiment on LOX IMVI melanoma is 1.49 µM; in the experiment with NCI-H226 lung it was 3.51 µM; in the experiment on KM12 colon, 2.08 µM. Besides, the TGI with T-47D breast turned out to be 3.5 µM; in the experiment on UACC-257 melanoma, 3.93 µM; in the experiment on MOLT-4 leukemia it was 3.89 µM; with A498 renal it was 10.7 µM; with SK-MEL-28 melanoma, 3.81 µM; in the experiment with SW-620 colon, 3.45 µM. Besides, the TGI with LOX IMVI melanoma was 2.92 µM; in the experiment with NCI-H226 lung, 13.6 µM; in the experiment on KM12 colon, 4.06 µM.
For the compound `Cc1nn(-c2nc3ccccc3[nH]2)c(N)c1-c1ccc(Cl)cc1`, the GI50 in the experiment with T-47D breast was 3.42 µM; in the experiment on UACC-257 melanoma, 2.63 µM; in the experiment with MOLT-4 leukemia it was 3.54 µM; in the experiment with A498 renal, 3.02 µM; with SK-MEL-28 melanoma, 20.9 µM; in the experiment on SW-620 colon, 4.58 µM. In addition, the GI50 in the experiment with LOX IMVI melanoma was 5.02 µM; with NCI-H226 lung it was 8.66 µM; in the experiment with KM12 colon, 4.39 µM. Also, the TGI with T-47D breast is above 100 µM; in the experiment on UACC-257 melanoma it was 55.8 µM; in the experiment with MOLT-4 leukemia it was above 100 µM; with A498 renal, above 100 µM; with SK-MEL-28 melanoma it was above 100 µM; in the experiment on SW-620 colon, above 100 µM. The TGI with LOX IMVI melanoma, with NCI-H226 lung and with KM12 colon was above 100 µM throughout.
Take `Cc1ccc(NC(=O)C2C(=O)N(c3ccc(C)cc3)C(=O)/C2=N\NC(N)=S)cc1` (stereo not given): the TGI in the experiment on UACC-257 melanoma, in the experiment on MOLT-4 leukemia, in the experiment on A498 renal, in the experiment on SK-MEL-28 melanoma, in the experiment with SW-620 colon and with SNB-75 CNS was above 100 µM each time. Moreover, the TGI in the experiment on LOX IMVI melanoma, with NCI-H226 lung and with KM12 colon was above 100 µM throughout.
Consider `CC(=O)[CH-]C(C)=O.CC(=O)[CH-]C(C)=O.[CH2-]CCC.[CH2-]CCC.[Sn+4]`, for which the GI50 with UACC-257 melanoma was 0.376 µM; in the experiment with MOLT-4 leukemia, 0.37 µM; with A498 renal, 0.259 µM; with SK-MEL-28 melanoma it was 0.436 µM; in the experiment on SW-620 colon, 0.148 µM; with SNB-75 CNS, 0.509 µM. The GI50 in the experiment with LOX IMVI melanoma was 0.174 µM; with NCI-H226 lung it was 1.77 µM; in the experiment with KM12 colon it was 1.11 µM. Moreover, the TGI with UACC-257 melanoma is 1.68 µM; in the experiment with MOLT-4 leukemia it was above 100 µM; in the experiment on A498 renal it was 0.73 µM; with SK-MEL-28 melanoma, 1.67 µM; in the experiment with SW-620 colon it was 0.375 µM; in the experiment on SNB-75 CNS it was 1.79 µM. Besides, the TGI in the experiment with LOX IMVI melanoma came out at 0.464 µM; with NCI-H226 lung it was 3.45 µM; in the experiment on KM12 colon it was 2.33 µM.
